Measurements taken from patent US20100143364A1, “Chimeric Antibodies, Compositions and Methods for Treating Cocaine-Related Disorders” (Vybion, Inc., priority 2008, published 2010).

Assay: pharmacokinetics of cocaine in plasma after i.v. cocaine HCl
Format: in vivo
Settings: 2-compartment model, no antibody, i.v. cocaine HCl 0.56 mg/kg
Procedure: The monoclonal antibodies, variants and/or derivatives of the present invention use their binding affinity for cocaine and its derivatives to reduce the concentration of cocaine or its derivatives in the brain. Infused antibodies, variants and/or derivatives also produce a dramatic dose-dependent increase in plasma cocaine concentrations and a concomitant decrease in the brain cocaine concentrations produced by an i.v. injection of cocaine HCI (0.56 mg/kg). […] The anti-cocaine antibodies, variants and/or derivatives of the invention increase the area under the plasma cocaine concentration-time curve (AUC) relative to the AUC in the absence of the anti-cocaine antibodies of the invention. The antibodies, variants and/or derivatives of the present invention decrease cocaine's volume of distribution (l/kg). However, cocaine is still rapidly cleared from plasma and its elimination is described by a single compartment model. The antibodies, variants and/or derivatives also produce a decrease in the cocaine AUC in the brain. Therefore, the effect of the antibodies on plasma and brain cocaine concentrations is predominantly due to a change in the distribution of cocaine with negligible effects on its rate of clearance.

## COC(=O)[C@H]1[C@@H](OC(=O)c2ccccc2)C[C@@H]2CC[C@H]1N2C [cocaine]
  distribution t1/2α: 1.9 min
  terminal elimination t1/2β: 26.1 min
